Source: publication doi:10.1101/2024.08.25.609621 (bioRxiv, 2024)
Where two headings read alike, the source gives them in different places.

Target: SARS-CoV-2 NSP3 macrodomain (Mac1), P43 crystal form (Severe acute respiratory syndrome coronavirus 2, UniProt P0DTD1)
Assay type: binding
Settings: for 1-BDC: PanDDA background density correction; for X-ray crystal structure: TRUE = crystal structure with ligand determined; for PanDDA run, DMSO background map: 1-BDC: event 1; for Total number of conformations: ligand conformations modeled in Mac1 crystal structure; for Binding site: site of Mac1 where ligand bound in crystal structure
[1] = crystal soak concentration 20 mM
[2] = crystal soak concentration 20 mM, P43 crystals
[3] = crystal soak, soak concentration 10 mM
[4] = crystal soak, soak concentration 10 mM, P43 crystals, TRUE = ligand-binding event identified
[5] = crystal soak, soak concentration 10 mM, TRUE = ligand modeled
[6] = occupancy estimate from PanDDA 1-BDC
[7] = crystal soak concentration 3 mM, P43 crystals
[8] = crystal soak concentration 3 mM
[9] = crystal soak concentration 10 mM
[10] = crystal soak concentration 10 mM, P43 crystals

Row | SMILES | 1-BDC | X-ray crystal structure | PanDDA run, DMSO background map: Hit [1] | PanDDA run, DMSO background map: 1-BDC [1] | Pandda run, overall: Hit [2] | Pandda run, overall: Modeling comment [2] | Pandda run, overall: Hit [4] | PanDDA run, DMSO background map: Hit [3] | PanDDA run, DMSO background map: Modeled [3] | PanDDA run, DMSO background map: 1-BDC [3] | Pandda run, overall: Modeled [5] | Total number of conformations | 2*(1-BDC) (%) [6] | Binding site | PanDDA run, DMSO background map: 1-BDC [9] | Pandda run, overall: Hit [10] | PanDDA run, DMSO background map: Hit [9] | further results
1 | O=C(O)C1CCCN1S(=O)(=O)c1cccc2nsnc12 (stereo not shown) [AVI-2] | 0.2 | TRUE | TRUE | 0.22 | TRUE | Duplicate, not modeled | TRUE | TRUE | TRUE | 0.2 | TRUE | 1 | 40% | Adenosine |  |  |  | Pandda run, overall: Modeling comment [3]: DMSO
2 | CC1CC(C(=O)O)CCN1C(=O)c1ccc2c(c1)NC(=O)CO2 (stereo not shown) [AVI-303] | 0.13 | TRUE | TRUE | 0.19 | TRUE | Duplicate, not modeled | TRUE | TRUE | TRUE | 0.13 | TRUE | 1 | 26% | Adenosine |  |  |  | 
3 | Cc1c(C)n(Cc2ccccc2)c2ncnc(N)c12 [AVI-321] | 0.08 | TRUE |  |  |  |  |  |  |  |  |  | 1 | 16% | Adenosine |  |  |  | PanDDA run, DMSO background map: 1-BDC: 0.15; Pandda run, overall: Hit [7]: TRUE; Pandda run, overall: Modeled [7]: TRUE; PanDDA run, DMSO background map: Hit [8]: TRUE; PanDDA run, DMSO background map: Modeled [8]: TRUE; PanDDA run, DMSO background map: 1-BDC [8]: 0.08
4 | Cc1cc2c(=O)n(CCN3C(=O)c4ccccc4S3(=O)=O)nnc2s1 [AVI-341] | 0.18 | TRUE | TRUE | 0.19 | TRUE | Duplicate, not modeled |  |  |  |  |  | 1 | 36% | Adenosine | 0.18 | TRUE | TRUE | Pandda run, overall: Modeled [10]: TRUE; PanDDA run, DMSO background map: Modeled [9]: TRUE
5 | CNc1ccc(NS(=O)(=O)c2cc3cccc(C)c3s2)cn1 [AVI-345] | 0.26 | TRUE | TRUE | 0.26 | TRUE |  |  |  |  |  |  | 1 |  | Adenosine | 0.17 | TRUE | TRUE | Occupancy difference (refined_occupancy - 2*(1-BDC)): 0; Refined ligand occupancy (%): 52%; Pandda run, overall: Modeling comment [10]: Duplicate, not modeled; PanDDA run, DMSO background map: Modeled [1]: TRUE; Pandda run, overall: Modeled [2]: TRUE; 2*(1-BDC) (%) (occupancy estimate from PanDDA BDC): 52%
